Measured values taken from patent publication US12441710B2, “Substituted piperidino compounds and related methods of treatment” (Alkermes, Inc., priority 2020, dated 2025).

What was measured:
Format in all cases: in vitro ADME
[1] = Hepatocytes stability assay (human hepatocytes); conditions: both sexes, cryopreserved hepatocytes, 1 μM test compound, 1×10^6 cell/mL, read-out: CLint (μL/min/million cells)
Description: (§1) In vitro metabolic stability was assessed using cryopreserved hepatocytes from male Sprague Dawley rats and a pool of 50 mixed gender humans (BioIVT, Baltimore, MD). The incubation mixtures were prepared by mixing 250 μL of pre-warmed KHB (Krebs-Henseleit buffer) containing 2×10^6 cell/mL of hepatocytes with 250 μL of pre-warmed KHB buffer containing 2 μM of test compounds in a 48-well plate, giving a final concentration of 1 μM test compound (0.1% DMSO) and 1×10^6 cell/mL of hepatocytes. The reaction mixture was incubated at 37 degrees C. A 50 μL aliquot of incubation mixture was taken at time points (0, 15, 30, 60, 120 and 240 minutes) and transferred into a 96-well plate containing 300 μL ice-cold acetonitrile (containing 30 ng/mL of labetalol and 10 ng/mL of Naltrexone-d3 as internal standards) and immediately placed in ice to terminate the reaction. Samples were centrifuged, and supernatants were transferred into 96-well plates for liquid chromatography with tandem mass spectrometry (LC-MS/MS) analysis to monitor the depletion of the test compound. Data was calculated as percent remaining by assuming zero-minute time point peak area ratio (analyte/IS) as 100% and dividing remaining time point peak area ratios by zero-minute time point peak area ratio. Data were fitted to a first-order decay model to determine half-life. From a plot of log (ln) peak area against time, the slope of the line was determined. Subsequently, half-life (T1/2) and intrinsic clearance (CLint) were calculated using the equations below: • Elimination rate constant (k)=(−slope) • Half-life (T1/2) min=0.693/k • Intrinsic Clearance (CLint) (mL/min/million cells)=(V×0.693)/T1/2 • V=incubation volume mL/number of cells The in vitro T1/2 was converted to in vitro intrinsic clearance (CLint,hep) in units of mL/min/kg using the formula shown below: The in vitro intrinsic clearance (CLint,hep) was scaled to in vivo hepatic clearance (CL,hep) using the following equation which was adapted from a well-stirred model. [formula] where Q is the liver blood flow and fu is the fraction unbound (assumed to be unity in this case). All parameters used in the calculation are shown below (Table 4). The extraction ratio (ER) was calculated by dividing the hepatic clearance of a compound to the liver blood flow. The data reported in Table 5 were obtained according to the human hepatocytes stability assay described above.

human hepatocytes = test: Hepatocytes stability assay (human hepatocytes); conditions: hepatic clearance divided by liver blood flow, fu assumed unity
Description: as §1

MDR1 = test: MDCK-MDR1 permeability assay; conditions: dog, 3 μM test compound; for efflux ratio at 2 h, 3 μM: Papp (B→A) divided by Papp (A→B), read-out: Efflux ratio (ER); for Papp A→B at 2 h, 3 μM: apical to basolateral, 2 hours at 37 degrees C
Description: The bidirectional permeability (Apical to Basal and Basal to Apical directions) of test compounds in MDCK-MDR1 cells were evaluated using MDCK-MDR1 cells seeded in Solvo PreadyPort™ MDCK 96-well plate. Once the plate was received from ReadyCell (Barcelona, Spain), it was treated as per PreadyPort™ user's manual.
For the Apical to Basolateral (A→B) permeability, 80 μL of test compound (3 μM) co-dosed with LY (Lucifer Yellow) (100 μM) in HBSS (Hank's Balanced Salt Solution) assay buffer was added to the donor side (A) while 250 μL of HBSS buffer was added to the receiver side (B). For the Basolateral to Apical (B→A) permeability, 255 μL of test compound (3 μM) in HBSS assay buffer was added to the donor side (B) while 75 μL of HBSS buffer containing LY (100 μM) was added to the receiver side (A).
The plate was placed in an incubator set at 37 degrees C. After 10 minutes of pre-warming, 5 μL aliquot was taken from donor compartment and set aside as the dosing solution. The MDCK-MDR1 incubation plate was placed back into the incubator for 2 hours of incubation at 37 degrees C. After 2 hours of incubation, 25 μL and 5 μL aliquots were removed from the receiver and donor sides, respectively. To the 5 μL aliquots taken from the donor sides (before and after a 2-hour incubation) were diluted with 20 μL of the HBSS buffer. All samples were mixed with 150 μL with acetonitrile containing internal standard (IS) and 200 μL water, and analyzed by LC-MS/MS.
The apparent permeability (Papp) was calculated using the following formula: Papp=dQ/dt×1/A×C0 where: • dQ/dt: amount of translocated material over incubation time (nmol/s) • A: area of insert (0.14 cm^2 for PreadyPort™ MDR1-96) • C0: initial concentration of product applied in apical (A→B) or basal (B→A) compartment (nmol/mL).
The efflux ratio (ER) was measured by dividing the Papp (basolateral to apical direction) by Papp (apical to basolateral direction). It is a general measure of the involvement of active processes. An ER >2 is considered positive for active transport.
The data reported in Table 3 were obtained according to the MDCK-MDR1 permeability assay described above.

Row | hepatocyte CLint at 1 μM [1] [µL/min/1e6 cells] | Extraction Ratio (ER) (human hepatocytes) | efflux ratio at 2 h, 3 μM (MDR1) | Papp A→B at 2 h, 3 μM (MDR1) [×10⁻⁶ cm/s] | Structure (SMILES)
1 | 60 | 0.90 | 17 | 1.1 | CS(=O)(=O)N[C@H]1CCN(c2ccncn2)CC1COC1CCC(c2ccccc2)CC1 (some centres unmarked) [Compound 20]
2 | 32 | 0.83 | > 6.9 | < 0.28 | Cc1cccc(C2CCC(OCC3CN(c4ccccn4)CC[C@@H]3NS(C)(=O)=O)CC2)c1C (some centres unmarked) [Compound 17]
3 | 45 | 0.87 | 25 | 0.97 | CS(=O)(=O)N[C@H]1CCN(c2ccccn2)CC1COC1CCC(c2cnccn2)CC1 (some centres unmarked) [Compound 9]
4 | 30 | 0.82 | 15 | 1.8 | CS(=O)(=O)N[C@H]1CCN(c2ccccn2)CC1COC1CCC(c2ccncn2)CC1 (some centres unmarked) [Compound 8]
5 | 42 | 0.86 | 30 | 0.28 | CS(=O)(=O)N[C@H]1CCN(c2ccc(F)cn2)CC1COC1CCC(c2ccccc2)CC1 (some centres unmarked) [Compound 24]
6 | 35 | 0.84 | 33 | 1 | CS(=O)(=O)N[C@H]1CCN(c2ccccn2)CC1COC1CCC(c2cncnc2)CC1 (some centres unmarked) [Compound 12]
7 | 16 | 0.71 | 18 | 0.67 | CS(=O)(=O)N[C@H]1CCN(c2ccccn2)CC1COC1CCC(c2ccnnc2)CC1 (some centres unmarked) [Compound 13]
8 | 107 | 0.94 | 16 | 1.7 | CS(=O)(=O)N[C@H]1CCN(Cc2ccncc2)CC1COC1CCC(c2ccccc2)CC1 (some centres unmarked) [Compound 41]
9 | 21 | 0.76 | 11 | 1.6 | CS(=O)(=O)N[C@H]1CCN(c2ccccn2)CC1COC1CCC(c2ncccn2)CC1 (some centres unmarked) [Compound 11]
10 | 73 | 0.92 | 1.4 | 5.6 | CS(=O)(=O)N[C@H]1CCN(c2ccccn2)CC1COC1CCC(c2ccccc2)CC1 (some centres unmarked) [Compound 10]
11 | 45 | 0.87 | 28 | 0.7 | CS(=O)(=O)N[C@H]1CCN(c2ccccn2)CC1COC1CCC(c2ccccc2O)CC1 (some centres unmarked) [Compound 30]
12 | 154 | 0.96 | > 3.4 | < 1.2 | CS(=O)(=O)N[C@H]1CCN(c2ncccc2C(F)(F)F)CC1COC1CCC(c2ccccc2)CC1 (some centres unmarked) [Compound 28]
13 | 57 | 0.89 | 14 | 1.2 | CS(=O)(=O)N[C@H]1CCN(c2ccccn2)CC1COC1CCC(c2ccncc2)CC1 (some centres unmarked) [Compound 4]
14 | 73 | 0.92 | > 58 | < 0.41 | CS(=O)(=O)N[C@H]1CCN(c2cc(F)ccn2)CC1COC1CCC(c2ccccc2)CC1 (some centres unmarked) [Compound 25]
15 | 25 | 0.79 | > 5.4 | < 2 | CS(=O)(=O)N[C@H]1CCN(c2cccc(F)n2)CC1COC1CCC(c2ccccc2)CC1 (some centres unmarked) [Compound 23]
16 | 110 | 0.94 | 34 | 0.41 | CS(=O)(=O)N[C@H]1CCN(c2ccccn2)CC1COC1CCC(c2ccc(O)cc2)CC1 (some centres unmarked) [Compound 32]
17 | 36 | 0.84 | > 2.6 | < 1.8 | Cc1cc(C)cc(C2CCC(OCC3CN(c4ccccn4)CC[C@@H]3NS(C)(=O)=O)CC2)c1 (some centres unmarked) [Compound 18]
18 | 50 | 0.88 | 24 | 1.7 | CS(=O)(=O)N[C@H]1CCN(c2ccccn2)CC1COC1CCC(c2cccnc2)CC1 (some centres unmarked) [Compound 3]
19 | 103 | 0.94 | 2.2 | 1.9 | CS(=O)(=O)N[C@H]1CCN(c2nccc3ocnc23)CC1COC1CCC(c2ccccc2)CC1 (some centres unmarked) [Compound 45]
20 | 64 | 0.91 | > 6.9 | < 0.33 | Cc1ccccc1C1CCC(OCC2CN(c3ccccn3)CC[C@@H]2NS(C)(=O)=O)CC1 (some centres unmarked) [Compound 15]
21 | 100 | 0.94 | 2.9 | 0.86 | CS(=O)(=O)N[C@H]1CCN(c2cccc3ccnn23)CC1COC1CCC(c2ccccc2)CC1 (some centres unmarked) [Compound 42]
22 | 102 | 0.94 | 12 | 1.3 | CS(=O)(=O)N[C@H]1CCN(c2ccccn2)CC1COC1CCC(c2cccc(C#N)c2)CC1 (some centres unmarked) [Compound 35]
23 | 93 | 0.93 | 14 | 1.2 | CS(=O)(=O)N[C@H]1CCN(c2ncccn2)CC1COC1CCC(c2ccccc2)CC1 (some centres unmarked) [Compound 19]
24 | 86 | 0.93 | 8.2 | 1.3 | CS(=O)(=O)N[C@H]1CCN(Cc2cccnc2)CC1COC1CCC(c2ccccc2)CC1 (some centres unmarked) [Compound 40]
25 | 43 | 0.87 | > 7.9 | < 0.9 | Cc1cccc(C2CCC(OCC3CN(c4ccccn4)CC[C@@H]3NS(C)(=O)=O)CC2)c1 (some centres unmarked) [Compound 16]
26 | 22 | 0.77 | > 56 | < 0.12 | CS(=O)(=O)N[C@H]1CCN(c2ccccn2)CC1COC1CCC(c2cccnn2)CC1 (some centres unmarked) [Compound 14]
27 | 56 | 0.89 | 23 | 1.3 | CS(=O)(=O)N[C@H]1CCN(c2cccnn2)CC1COC1CCC(c2ccccc2)CC1 (some centres unmarked) [Compound 22]
28 | 58 | 0.90 | > 12 | < 0.21 | CS(=O)(=O)N[C@H]1CCN(Cc2ccccc2)CC1COC1CCC(c2ccccc2)CC1 (some centres unmarked) [Compound 36]
29 | 133 | 0.95 | 6.4 | 3 | CS(=O)(=O)N[C@H]1CCN(c2nccc3ncnn23)CC1COC1CCC(c2ccccc2)CC1 (some centres unmarked) [Compound 44]
